# Patent US9989535B2, “Methods and reagents for analyzing protein-protein interfaces” (Warp Drive Bio, Inc., priority 2015, dated 2018)
# How the values were obtained:
# Type in all cases: binding
# [1] = target: T1, KRASGTP/S39C lite (Homo sapiens, UniProt P01116, C118S/C51S/C80L/G12V/S39C); assay: Formation of KRASGTP/S39C lite/C2-FK506 conjugates, SDS-PAGE
# T1 construct: residues 1-169 containing G12V/S39C/C51S/C80L/C118S; made in house
# Protocol: (§1) Experimental Protocol: A 1:2 molar ratio of target protein and compound are mixed together in 12.5 mM HEPES pH 7.4, 75 mM NaCl buffer containing 2% DMSO. The reaction is incubated at 37° C. for 30 min, followed by overnight incubation at room temperature. Cross-linking efficiency is assessed by SDS-PAGE gel. Conjugates migrate slower than non-cross-linked target protein. For thiol reactive compounds, the Cys specific attachment of the compound to the target protein can be further confirmed by SDS-PAGE after the addition of 100 mM DTT to the reaction mixture, which reduces the conjugate back into its components.
# Experimental Protocol: A 1:2 molar ratio of KRASGTP/S39C lite and C2-FK506 are mixed together in 12.5 mM HEPES pH 7.4, 75 mM NaCl buffer containing 2% DMSO. The reaction is incubated at 37° C. for 30 min, followed by overnight incubation at room temperature. Cross-linking efficiency is assessed by SDS-PAGE gel. Attachment of C2-FK506 to Cysteine 39 on KRASGTP/S39C lite is also assessed by incubation of the reaction mixture with 100 mM DTT.
# [2] = target: T2, KRASGTP/S39C lite/FKBP12 (Homo sapiens, UniProt P01116+P62942, C118S/C51S/C80L/G12V/S39C); assay: Ternary complex formation by SEC and SDS-PAGE; conditions: SEC profile and SDS-PAGE of elution peaks
# T2 construct: residues 1-169 containing G12V/S39C/C51S/C80L/C118S; made in house
# Protocol: (§2) A 1:2:2 molar ratio of compound, presenter protein, and target protein are mixed together in 12.5 mM HEPES pH 7.4, 75 mM NaCl buffer containing 2% DMSO. The reaction is incubated at 37° C. for 30 min, followed by overnight incubation at room temperature. Pure complex is isolated by Size Exclusion Chromatography (SEC) purification. The reaction mixture is directly injected on a Superdex 75 column (CV 120 mL) pre-equilibrated with buffer containing 12.5 mM HEPES pH 7.4, 75 mM NaCl. Complex elutes at a higher molecular weight than unreacted target protein and presenter protein. To confirm presence of complex in the elution peak, samples are assessed by SDS-PAGE.
# (§3) The reaction is incubated at 37° C. for 30 min, followed by overnight incubation at room temperature. Pure complex is isolated by Size Exclusion Chromatography (SEC) purification. The reaction mixture is directly injected on a Superdex 75 column (CV 120 mL) pre-equilibrated with buffer containing 12.5 mM HEPES pH 7.4, 75 mM NaCl. Complex elutes at around 69 mL post injection and unreacted KRASGTP/S39C lite and FKBP12 elutes at around 75 mL and 87 mL post injection respectively. To confirm the presence of KRASGTP/S39C lite and FKBP12 in the elution peak, samples are also assessed by SDS-PAGE.
# [3] = target: T3, KRASGTP/G12C (Homo sapiens, UniProt P01116+P62942, G12C); assay: Cross-linking gel shift assay (12% SDS-PAGE), with or without FKBP12; conditions: 60 μM KRAS, 180 μM FKBP12, 180 μM ligand, quenched by MMTS
# T3 construct: KRASGTP/G12C (in-house, residues 1-169); made in house
# Protocol: In parallel to mass spectrometry analysis, cross-linking reactions with C3- or C4-SLF were subjected to gel shift assay using 12% SDS-PAGE in the presence or absence of FKBP12 at the same experimental condition described above except that cross-linking reactions were set up at higher concentrations (60 μM KRAS, 180 μM FKBP12, and 180 μM C3- or C4-SLF) and they were quenched by MMTS to terminate the reaction.
# [4] = target: T3, KRASGTP/G12C; assay: Disulfide cross-linking efficiency by mass spectrometry, with or without FKBP12; conditions: 2 μM KRAS, 10 μM ligand, 4 hours RT, MS
# Protocol: Experimental protocol: In order to follow the kinetics of disulfide crosslinking reactions, Agilent 6230 TOF-LC/MS and Agilent 1260 HPLC instruments employing a AdvanceBio RP-mAb C4 column (2.1×100 mm, 3.5 μm) and equipped with an auto-sampler were used. HPLC grade acetonitrile and water (each containing 1.0 mM ammonium formate and 1% formic acid by volume) were used as mobile phase with the following ramp: 0.6 ml/min flow rate, water:acetonitrile=95:5 from 0.0 to 13.0 min ramping to water:acetonitrile=5:95 from 13.0 to 17.0 min. Total time=17.0 min.
# All crosslinking reactions were performed in 1.5 mL amber colored glass vials equipped with 0.5 mL glass inserts. A water-soluble peptide (SEQ ID NO: 1: […]) was employed as an internal standard. Although the actual sequence of the internal standard is inconsequential, choice of amino acid residues were critical to avoid interference in the crosslinking assays. […] All reactions and standard solutions were prepared in HEPES (pH 7.4, 1.0 mM MgCl2) buffer.
# Prior to every reaction, a standard curve was obtained for the individual components using a series of standard solutions (an example of standard curve analysis for FKBP12 is shown in Table 3 below). Using the data from standard curve, μmol of protein samples were plotted against the ratio of areas (sample:std) and a linear fit (y=mx+c) was employed to obtain the slope and intercept. The value of slope and intercept involved in these standard curves were accounted for during evaluation of the substrate and product concentration before and during the course of the reaction. For every substrate/product, an initial injection was followed up by a blank injection to verify presence of any residual protein/reagents. Based on this analysis the sequence of auto-sampler can be adjusted to included appropriate number of blank injections for removal of residual components, if any. The MS spectra were analyzed using Agilent MassHunter v B.07.0 software.
# In a representative experiment to assess the presenter dependency of ligand cross-linking on the target protein, KRASGTP/G12C and either C3- or C4-SLF ligand were incubated in the presence or absence of FKBP12 at concentrations of 2 μM KRAS, 10 μM FKBP12, 10 μM C3- or C4-SLF for 4 hours at room temperature in 12.5 mM HEPES pH 7.4, 75 mM NaCl, 1 mM MgCl2, 3% DMSO. Analysis of the amount of KRAS undergoing disulfide cross-linking with the ligand using the method above.
# [5] = target: T4, KRASGDP/S39C lite/CypAC52S (Homo sapiens, UniProt P01116+P62937, C118S/C51S/C52S/C80L/G12V/S39C); assay: Ternary complex formation by SEC and SDS-PAGE; conditions: SEC profile and SDS-PAGE of elution peaks
# T4 construct: residues 1-169 containing G12V/S39C/C51S/C80L/C118S; made in house
# Protocol: as §2
# as §3, with “KRASGDP/S39C” for “KRASGTP/S39C”, “CypAC52S” for “FKBP12”, “80” for “87”
# [6] = target: T5, KRASGTP/G12C lite (Homo sapiens, UniProt P01116, C118S/C51S/C80L/G12C); assay: Formation of KRASGTP/G12C lite/SFAX9DS conjugates, SDS-PAGE; conditions: 1:2 protein:compound
# T5 construct: residues 1-169 containing G12C/C51S/C80L/C118S; made in house
# Protocol: as §1
# (§4) Experimental Protocol: A 1:2 molar ratio of KRASGTP/G12C lite and SFAX9DS are mixed together in 12.5 mM HEPES pH 7.4, 75 mM NaCl buffer containing 2% DMSO. The reaction is incubated at 37° C. for 30 min, followed by overnight incubation at room temperature. Cross-linking efficiency is assessed by SDS-PAGE gel. Wild-type CypA also cross-linked with the compound. Cysteine 52 as a reactive Cysteine on CypA and was mutated to Serine to abrogate presenter cross-linking.
# [7] = target: T6, CypAC52S (Homo sapiens, UniProt P62937, C52S); assay: Presenter cross-linking with SFAX9DS, SDS-PAGE
# T6 construct: made in house
# Protocol: as §4
# T6 sequence (P62937 whole entry C52S): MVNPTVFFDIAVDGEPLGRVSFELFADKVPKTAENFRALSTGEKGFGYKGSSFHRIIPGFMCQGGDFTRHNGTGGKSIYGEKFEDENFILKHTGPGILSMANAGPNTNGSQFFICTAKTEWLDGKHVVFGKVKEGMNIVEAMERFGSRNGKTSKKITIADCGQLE
compound,measurement,setting,value
CO[C@H]1C[C@@H](C)C/C(C)=C/[C@@H](CCCC(=O)NCCSSc2ccccn2)C(=O)C[C@H](O)[C@@H](C)[C@@H](/C(C)=C/[C@@H]2CC[C@@H](O)[C@H](OC)C2)OC(=O)[C@@H]2CCCCN2C(=O)C(=O)[C@]2(O)O[C@H]1[C@@H](OC)C[C@H]2C [Compound C2-FK506],Cross-linking efficiency with KRASGTP/S39C lite,"[1]; 1:2 protein:compound, 37° C. 30 min then overnight RT",cross-links efficiently
same,Site specificity of attachment,[1]; reaction mixture + 100 mM DTT,specific for Cysteine 39
CCC(C)(C)C(=O)C(=O)N1CCCC[C@H]1C(=O)OCCCC(=O)NCCSSc1ccccn1 [Compound C2-Holt],Formation of KRASGTP/S39C lite/C2-Holt/FKBP12 complex,[2],confirm the formation
"CCC(C)(C)C(=O)C(=O)N1CCCC[C@H]1C(=O)O[C@H](CCc1ccc(OC)c(OC)c1)c1cccc(NC(=O)CCCSSc2ccccn2)c1 [Compound C4-SLF, (R)-3-(3,4-dimethoxyphenyl)-1-(3-(4-(pyridin-2-yldisulfanyl)butanamido)phenyl)propyl (S)-1-(3,3-dimethyl-2-oxopentanoyl)piperidine-2-carboxylate]","Ligand cross-linking efficiency in the presence of FKBP12, gel shift",[3],boosted significantly
same,% × link to KRAS,[4]; FKBP12 absent (−),7.0%
same,% × link to KRAS,[4]; FKBP12 present (+) 10 μM,69.8%
"COC(=O)[C@@H]1CCCN(C(=O)[C@H](Cc2cccc(O)c2)NC(=O)[C@@H](NC(=O)CCCSSc2ccccn2)C(C)C)N1 [SFAC4DS, methyl (S)-1-((S)-3-(3-hydroxyphenyl)-2-((S)-3-methyl-2-(4-(pyridin-2-yldisulfanyl)butanamido)butanamido)propanoyl)hexahydropyridazine-3-carboxylate]",Formation of KRASGDP/S39C lite/SFAC4DS/CypAC52S complex,[5],confirm the formation
COC(=O)[C@@H]1CCCN(C(=O)[C@H](Cc2cccc(O)c2)NC(=O)[C@@H](NC(=O)CCOCCOCCSSc2ccccn2)C(C)C)N1 [SFAX9DS],Cross-linking efficiency with KRASGTP/G12C lite,[6],cross-links efficiently
same,Cross-linking of presenter CypAC52S to compound,[7],does not cross-link
